From paper PMC6001238, “Iterative Chemical Engineering of Vancomycin Leads to Novel Vancomycin Analogs With a High in Vitro Therapeutic Index” (Frontiers in Microbiology, 2018)
Converted amounts (≈) assume the structure as drawn.

How the values were obtained:
[1] = tested on: MRSA KS6; experiment: MIC, broth microdilution, MRSA KS6; type: cell-based, Staphylococcus aureus; conditions: for MIC-fold improvement vs. vancomycin: MRSA KS6, ratio of MIC of vancomycin and MIC of analogue; for MIC: Staphylococcus aureus MRSA KS6, read-out: MIC
Procedure, shortened: (§1)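 Broth microdilution per CLSI; controls = ultrapure water, non-inoculated broth. One set: + vancomycin 10 μM final alongside test analogue/control drug.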

[2] = tested on: MRSA KS89; experiment: MIC, broth microdilution, MRSA KS89; type: cell-based, Staphylococcus aureus; conditions: for MIC-fold improvement vs. vancomycin: MRSA KS8, ratio of MIC of vancomycin and MIC of analogue; for MIC: Staphylococcus aureus MRSA KS8, read-out: MIC
Procedure, shortened: as §1

[3] = tested on: Murine leukemia (L1210) cells; experiment: Cytostatic activity, L1210 cell proliferation; type: cell-based; conditions: mean ± SD of three experiments; highest concentration tested 250 µM; 2 days; read-out: Toxicity (IC50) L1210
Procedure, shortened: (§2)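 Suspensions (300,000–500,000 cells/mL) combined with equal volumes of diluted compound; 37°C; L1210 2 d / CEM 3 d / HeLa 4 d; counted by Coulter counter; IC50 vs untreated wells.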

[4] = tested on: MRSA KS1; experiment: MIC, broth microdilution, MRSA KS1; type: cell-based, Staphylococcus aureus; conditions: for MIC-fold improvement vs. vancomycin: MRSA KS1, ratio of MIC of vancomycin and MIC of analogue; for MIC: Staphylococcus aureus MRSA KS1, read-out: MIC
Procedure, shortened: as §1

[5] = tested on: human cervix carcinoma (HeLa) cells; experiment: Cytostatic activity, HeLa cell proliferation; type: cell-based; conditions: mean ± SD of three experiments; highest concentration tested 250 µM; 4 days; read-out: Toxicity (IC50) HeLa
Procedure, shortened: as §2

[6] = tested on: E. faecalis VRE 53; experiment: MIC, broth microdilution, vancomycin-resistant E. faecalis VRE 53 (VanA); type: cell-based, Enterococcus faecalis; conditions: for MIC: Enterococcus faecalis VRE 53 (vancomycin-resistant), read-out: MIC; for MIC-fold improvement vs. vancomycin: VRE 53, ratio of MIC of vancomycin and MIC of analogue
Procedure, shortened: as §1

[7] = tested on: E. faecalis VSE 1; experiment: MIC, broth microdilution, vancomycin-sensitive E. faecalis (VSE 1); type: cell-based, Enterococcus faecalis; conditions: for MIC: Enterococcus faecalis VSE 1 (vancomycin-sensitive), read-out: MIC; for MIC-fold improvement vs. vancomycin: VSE 1, ratio of MIC of vancomycin and MIC of analogue
Procedure, shortened: as §1

[8] = tested on: S. aureus VISA/HIP5827; experiment: MIC, broth microdilution, vancomycin-intermediate S. aureus VISA HIP5827; type: cell-based, Staphylococcus aureus; conditions: for MIC: Staphylococcus aureus VISA/HIP5827, read-out: MIC; for MIC-fold improvement vs. vancomycin: VISA/HIP5827, ratio of MIC of vancomycin and MIC of analogue
Procedure, shortened: as §1

[9] = tested on: E. faecalis VRE 6; experiment: MIC, broth microdilution, vancomycin-resistant E. faecalis VRE 6 (VanA); type: cell-based, Enterococcus faecalis; conditions: for MIC: Enterococcus faecalis VRE 6 (vancomycin-resistant), read-out: MIC; for MIC-fold improvement vs. vancomycin: VRE 6, ratio of MIC of vancomycin and MIC of analogue
Procedure, shortened: as §1

[10] = tested on: E. faecalis VRE 29; experiment: MIC, broth microdilution, vancomycin-resistant E. faecalis VRE 29 (VanA); type: cell-based, Enterococcus faecalis; conditions: for MIC: Enterococcus faecalis VRE 29 (vancomycin-resistant), read-out: MIC; for MIC-fold improvement vs. vancomycin: VRE 29, ratio of MIC of vancomycin and MIC of analogue
Procedure, shortened: as §1

[11] = tested on: E. faecalis VRE 37; experiment: MIC, broth microdilution, vancomycin-resistant E. faecalis VRE 37 (VanA); type: cell-based, Enterococcus faecalis; conditions: for MIC: Enterococcus faecalis VRE 37 (vancomycin-resistant), read-out: MIC; for MIC-fold improvement vs. vancomycin: VRE 37, ratio of MIC of vancomycin and MIC of analogue
Procedure, shortened: as §1

[12] = tested on: MRSA KS2; experiment: MIC, broth microdilution, MRSA KS2; type: cell-based, Staphylococcus aureus; conditions: for MIC-fold improvement vs. vancomycin: MRSA KS2, ratio of MIC of vancomycin and MIC of analogue; for MIC: Staphylococcus aureus MRSA KS2, read-out: MIC
Procedure, shortened: as §1

[13] = tested on: human T-lymphocyte (CEM) cells; experiment: Cytostatic activity, CEM cell proliferation; type: cell-based; conditions: mean ± SD of three experiments; highest concentration tested 250 µM; 3 days; read-out: Toxicity (IC50) CEM
Procedure, shortened: as §2

[14] = tested on: L1210, CEM and HeLa cell lines; experiment: Cytostatic activity, average or summary over L1210, CEM and HeLa; type: cell-based; conditions: average of L1210, CEM and HeLa; read-out: Toxicity (IC50) Average
Procedure, shortened: as §2

[15] = tested on: S. aureus VRSA; experiment: MIC, broth microdilution, vancomycin-resistant S. aureus (VRSA); type: cell-based, Staphylococcus aureus; conditions: for MIC: Staphylococcus aureus VRSA, read-out: MIC; for MIC-fold improvement vs. vancomycin: VRSA, ratio of MIC of vancomycin and MIC of analogue
Procedure, shortened: as §1

[16] = tested on: S. aureus VSSA (ATCC 6538); experiment: MIC, broth microdilution, vancomycin-sensitive S. aureus (VSSA/MSSA, ATCC 6538); type: cell-based, Staphylococcus aureus; conditions: for MIC: Staphylococcus aureus VSSA, read-out: MIC; for MIC-fold improvement vs. vancomycin: VSSA, ratio of MIC of vancomycin and MIC of analogue
Procedure, shortened: as §1

Row | SMILES | MIC-fold improvement vs. vancomycin [1] | MIC [1] [µM] | MIC-fold improvement vs. vancomycin [2] | MIC [2] [µM] | IC50 [3] [µM] | MIC-fold improvement vs. vancomycin [4] | MIC [4] [µM] | IC50 [5] [µM] | MIC [6] [µM] | MIC-fold improvement vs. vancomycin [6] | MIC [7] [µM] | MIC-fold improvement vs. vancomycin [7] | MIC [8] [µM] | MIC-fold improvement vs. vancomycin [8] | MIC [9] [µM] | MIC-fold improvement vs. vancomycin [9] | MIC [10] [µM] | MIC-fold improvement vs. vancomycin [10] | MIC [11] [µM] | MIC-fold improvement vs. vancomycin [12] | also measured
1 | CN[C@H](CC(C)C)C(=O)N[C@H]1C(=O)N[C@@H](CC(N)=O)C(=O)N[C@H]2C(=O)N[C@H]3C(=O)N[C@H](C(=O)N[C@H](C(=O)NCC(=O)Nc4cc(OC)cc(OC)c4)c4cc(O)cc(O)c4-c4cc3ccc4O)[C@H](O)c3ccc(c(Cl)c3)Oc3cc2cc(c3O[C@@H]2O[C@H](CO)[C@@H](O)[C@H](O)[C@H]2O[C@H]2C[C@](C)(N)[C@H](O)[C@H](C)O2)Oc2ccc(cc2Cl)[C@H]1O [Vanc-17] | 1 | 0.78 (≈ 1.28 µg/mL) | 1 | 0.78 (≈ 1.28 µg/mL) | > 250 | 1 | 0.78 (≈ 1.28 µg/mL) | 119 ± 48 | 25 (≈ 41 µg/mL) | 16 | 0.78 (≈ 1.28 µg/mL) | 2 | 0.78 (≈ 1.28 µg/mL) | 8 | 6.25 (≈ 10.3 µg/mL) | 32 | 25 (≈ 41 µg/mL) | 16 | 50 (≈ 82.1 µg/mL) | 2 | MIC-fold improvement vs. vancomycin [11]: 8; MIC [12]: 0.39 µM (≈ 0.64 µg/mL); IC50 [13]: > 250 µM; IC50 [14]: 206 µM; MIC [15]: 12.5 µM (≈ 20.5 µg/mL); MIC-fold improvement vs. vancomycin [15]: 8; MIC [16]: 0.78 µM (≈ 1.28 µg/mL); MIC-fold improvement vs. vancomycin [16]: 1
2 | CCCCCc1ccc(C(=O)NCCCNC(=O)C2NC(=O)C3NC(=O)C(NC(=O)C4NC(=O)C(CC(N)=O)NC(=O)C(NC(=O)C(CC(C)C)NC)C(O)c5ccc(c(Cl)c5)Oc5cc4cc(c5OC4OC(CO)C(O)C(O)C4OC4CC(C)(N)C(O)C(C)O4)Oc4ccc(cc4Cl)C3O)c3ccc(O)c(c3)-c3c(O)cc(O)cc32)cc1 (stereo not shown) [Vanc-49] | 4 | 0.20 (≈ 0.336 µg/mL) | 4 | 0.20 (≈ 0.336 µg/mL) | 63 ± 8 | >8 | <0.10 | 99 ± 1 | 6.25 (≈ 10.5 µg/mL) | 64 | 0.39 (≈ 0.655 µg/mL) | 4 | 0.39 (≈ 0.655 µg/mL) | 16 | 6.25 (≈ 10.5 µg/mL) | 32 | 6.25 (≈ 10.5 µg/mL) | 64 | 6.25 (≈ 10.5 µg/mL) | 4 | MIC-fold improvement vs. vancomycin [11]: 64; MIC [12]: 0.20 µM (≈ 0.336 µg/mL); IC50 [13]: 36 ± 8 µM; IC50 [14]: 66 µM; MIC [15]: 0.39 µM (≈ 0.655 µg/mL); MIC-fold improvement vs. vancomycin [15]: 256; MIC [16]: 0.20 µM (≈ 0.336 µg/mL); MIC-fold improvement vs. vancomycin [16]: 4
3 | CNC(CC(C)C)C(=O)NC1C(=O)NC(CC(N)=O)C(=O)NC2C(=O)NC3C(=O)NC(C(=O)NC(C(=O)NCC(=O)Nc4ccc5c(c4)C(=O)c4ccccc4-5)c4cc(O)cc(O)c4-c4cc3ccc4O)C(O)c3ccc(c(Cl)c3)Oc3cc2cc(c3OC2OC(CO)C(O)C(O)C2OC2CC(C)(N)C(O)C(C)O2)Oc2ccc(cc2Cl)C1O (stereo not shown) [Vanc-89] | 4 | 0.20 (≈ 0.337 µg/mL) | 4 | 0.20 (≈ 0.337 µg/mL) | 71 ± 56 | 8 | 0.10 (≈ 0.168 µg/mL) | 154 ± 30 | 12.5 (≈ 21 µg/mL) | 32 | ≤0.05 | ≥32 | 0.78 (≈ 1.31 µg/mL) | 8 | 3.13 (≈ 5.27 µg/mL) | 64 | 6.25 (≈ 10.5 µg/mL) | 64 | 6.25 (≈ 10.5 µg/mL) | 8 | MIC-fold improvement vs. vancomycin [11]: 64; MIC [12]: 0.10 µM (≈ 0.168 µg/mL); IC50 [13]: 38 ± 10 µM; IC50 [14]: 88 µM; MIC [15]: 0.78 µM (≈ 1.31 µg/mL); MIC-fold improvement vs. vancomycin [15]: 128; MIC [16]: 0.10 µM (≈ 0.168 µg/mL); MIC-fold improvement vs. vancomycin [16]: 8
4 | CN[C@H](CC(C)C)C(=O)N[C@H]1C(=O)N[C@@H](CC(N)=O)C(=O)N[C@H]2C(=O)N[C@H]3C(=O)N[C@H](C(=O)N[C@H](C(=O)NCC(=O)Nc4ccc(NS(=O)(=O)c5ccc(Cl)cc5Cl)cc4)c4cc(O)cc(O)c4-c4cc3ccc4O)[C@H](O)c3ccc(c(Cl)c3)Oc3cc2cc(c3O[C@@H]2O[C@H](CO)[C@@H](O)[C@H](O)[C@H]2O[C@H]2C[C@](C)(N)[C@H](O)[C@H](C)O2)Oc2ccc(cc2Cl)[C@H]1O [Vanc-61] | 2 | 0.39 (≈ 0.704 µg/mL) | 2 | 0.39 (≈ 0.704 µg/mL) | ≥ 250 | 2 | 0.39 (≈ 0.704 µg/mL) | 87 ± 37 | 6.25 (≈ 11.3 µg/mL) | 64 | 0.39 (≈ 0.704 µg/mL) | 4 | 0.78 (≈ 1.41 µg/mL) | 8 | 3.13 (≈ 5.65 µg/mL) | 64 | 6.25 (≈ 11.3 µg/mL) | 64 | 12.5 (≈ 22.6 µg/mL) | 4 | MIC [12]: 0.20 µM (≈ 0.361 µg/mL); IC50 [13]: ≥ 250 µM; IC50 [14]: 196 µM; MIC [15]: 0.39 µM (≈ 0.704 µg/mL); MIC-fold improvement vs. vancomycin [15]: 256; MIC [16]: 0.20 µM (≈ 0.361 µg/mL); MIC-fold improvement vs. vancomycin [16]: 4
5 | CCc1cccc(C)c1NC(=O)CNC(=O)C1NC(=O)C2NC(=O)C(NC(=O)C3NC(=O)C(CC(N)=O)NC(=O)C(NC(=O)C(CC(C)C)NC)C(O)c4ccc(c(Cl)c4)Oc4cc3cc(c4OC3OC(CO)C(O)C(O)C3OC3CC(C)(N)C(O)C(C)O3)Oc3ccc(cc3Cl)C2O)c2ccc(O)c(c2)-c2c(O)cc(O)cc21 (stereo not shown) [Vanc-19] | 0.5 | 1.56 (≈ 2.53 µg/mL) | 1 | 0.78 (≈ 1.27 µg/mL) | > 250 | 1 | 0.78 (≈ 1.27 µg/mL) | 63 ± 5 | 25 (≈ 40.6 µg/mL) | 16 | 1.56 (≈ 2.53 µg/mL) | 1 | 3.13 (≈ 5.08 µg/mL) | 2 | 3.13 (≈ 5.08 µg/mL) | 64 | 12.5 (≈ 20.3 µg/mL) | 32 | 25 (≈ 40.6 µg/mL) | 1 | MIC-fold improvement vs. vancomycin [11]: 16; MIC [12]: 0.78 µM (≈ 1.27 µg/mL); IC50 [13]: > 250 µM; IC50 [14]: 188 µM; MIC [15]: 12.5 µM (≈ 20.3 µg/mL); MIC-fold improvement vs. vancomycin [15]: 8; MIC [16]: 0.78 µM (≈ 1.27 µg/mL); MIC-fold improvement vs. vancomycin [16]: 1
